Experimental data reported in PubChem BioAssay AID493003 (Sanford-Burnham Center for Chemical Genomics, 2010).
Calls of active or inactive are those of the source. No rule for the calls is given here.

The compounds below were run on S. cerevisiae tim10-1 mutant growth, luminescence (assay: growth inhibitors of tim10-1 mutant yeast, dose response, luminescence, S. cerevisiae, uHTS hits (AID 493003);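 also: yeast growth measured after about 22 hours at 25 °C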).
`COc1ccccc1C/C(N)=N/OC(=O)c1ccco1` showed an IC50 of 37.3 µM. For `Cc1cc(N/N=C/c2ccc(Cl)cc2)nc(NCc2ccccc2)n1`, the IC50 was 36.6 µM. In the case of `Cc1nc2ccccn2c1P(=S)(N1CCCCC1)N1CCCCC1`, the IC50 is reported as 39.7 µM. Work on `Cc1nn(C)c(C)c1NC(=O)Nc1ccc(Cl)c(Cl)c1` yielded an IC50 of 22.4 µM. `Nc1cc2c(cc1C(=O)c1ccc(Cl)cc1)OCCO2` gave an IC50 of 38.2 µM. `CCOC(=O)/C=C/C(=O)OCC(=O)Nc1ccc([N+](=O)[O-])cc1` was tested, and the IC50 was 8.19 µM. `O=C(/C=C/c1c[nH]c2ccccc12)c1ccccc1` was tested, and the IC50 was 78.2 µM. `O=C(Nc1cccnc1)c1cn(-c2ccccc2)nc1-c1cccs1` was tested, and the IC50 was 13.2 µM. `O=C(Nc1cc(Sc2ccccn2)cc([N+](=O)[O-])c1)c1cccc(F)c1` gave an IC50 of 88 µM. `COc1ccc2nc(/N=C(\N)NC(=O)Nc3ccccc3)nc(C)c2c1` gave an IC50 of 47.3 µM. Compound `CC(NC(=O)c1cccc(Cl)c1)C1CC2CCC1C2` (configuration not stated) has an IC50 of 42.3 µM. With `CCN(CC1COc2ccccc2O1)C(=S)Nc1ccccc1` (configuration not stated) the IC50 was 64.8 µM. Work on `CCOc1ccccc1C(=O)Nc1cc(OC)ccc1OC` yielded an IC50 of 35.1 µM. With `CC(C)(C)C1CCc2nc(NC(=O)Cc3cn4ccsc4n3)sc2C1` (configuration not stated) the IC50 was 22.7 µM. `CC1CCN(C(=S)c2cn(Cc3ccccc3F)c3ccccc23)CC1` was tested, and the IC50 was 35.4 µM. With `Cc1ccc(NC(=O)c2ccc([N+](=O)[O-])o2)c(C)c1` the IC50 was 15.7 µM. Compound `O=C1CC(Sc2cccs2)C(=O)N1c1ccccc1` (configuration not stated) has an IC50 of 30.7 µM. `CCn1c(=S)sc2c(=O)n(-c3ccccc3)c(SC)nc21` was tested, and the IC50 was 68.4 µM. `CCn1c(CSc2nc3ccccc3s2)n[nH]c1=S` was tested, and the IC50 was 49.4 µM. With `COc1ccc(/C(N)=N/OC(=O)c2cccs2)cc1OC` the IC50 was 42.8 µM. Compound `CC(/C=N/Nc1nc(C)cc(C)n1)=C\c1ccc(C(C)C)cc1` has an IC50 of 39.1 µM. In the case of `CC(C)(C)c1ccc(C(=O)CC(Sc2ccc(Cl)cc2)C(=O)O)cc1` (configuration not stated), the IC50 is reported as 27.6 µM. Compound `Cc1ccccc1NC(=O)CSc1nc(N)c2c3c(sc2n1)CSC(C)(C)C3` has an IC50 of 36.6 µM. `COc1cc(/C=N/N=C2/C(=O)Nc3ccccc32)cc(OC)c1O` was tested, and the IC50 was 30.1 µM. `CC(C)Nc1nnc(Sc2ccc(Cl)cc2[N+](=O)[O-])s1` was tested, and the IC50 was 8.34 µM. `Fc1ccc(CNC(=S)Nc2cccc(C(F)(F)F)c2)cc1` showed an IC50 of 16.1 µM. `O=C(CNS(=O)(=O)c1c(Cl)cccc1Cl)OCc1csc(-c2ccccc2)n1` was tested, and the IC50 was 41 µM. In the case of `O=C(Nc1ccc(OCC(F)(F)C(F)F)c(C(F)(F)F)c1)c1ccc(Cl)cc1`, the IC50 is reported as 52.8 µM. For `C[C@@H]1CC=C[C@H]2[C@H]1C(=O)N(Cc1ccccc1)[C@H]2c1ccc(-c2ccoc2)cc1F`, the IC50 was 12.4 µM. For `c1ccc(-c2csc3ncnc(-n4cnc5ccccc54)c23)cc1`, the IC50 was 15.8 µM. For `C/C(=N\OC(=O)NC(C)C)c1sc(-c2ccc(Cl)cc2)nc1C`, the IC50 was 33.5 µM. For `S=c1[nH]nc(CSc2nc3ccccc3s2)n1C1CCCCC1`, the IC50 was > 100 µM (inactive). For `O=C1c2cccc(Cl)c2C(=O)c2c1cccc2N1CCCC1`, the IC50 was 18.4 µM. For `O=C(Nc1ccccc1Cl)C(Cl)C(=O)c1ccccc1` (configuration not stated), the IC50 was 70.1 µM. With `COc1ccc(Cn2c(-c3ccc(Br)cc3)c[n+]3ccccc23)cc1` the IC50 was 37.8 µM. `COc1cc(/C=C/C(=O)CC(=O)/C=C/c2ccc(O)c(OC)c2)ccc1O` showed an IC50 of 19.7 µM. `COc1ccc(-c2cn3c(C)c(C(=O)N4CCc5ccccc5C4)sc3n2)cc1` showed an IC50 of 40 µM. `CCOC(=O)c1sc(=S)n(Cc2ccccc2)c1N` was tested, and the IC50 was 50.4 µM. With `Cc1ccsc1C1Nc2ccccc2-c2nc3ccccc3n21` (configuration not stated) the IC50 was 28.5 µM. `Cc1cccc(NC(=O)c2ccc([N+](=O)[O-])s2)n1` showed an IC50 of 6.52 µM. `O=C(COC(=O)c1ccccc1C(=O)c1ccccc1)Nc1ccc(SC(F)F)cc1` gave an IC50 of 72.9 µM. `C=CCNC(=S)NNc1nc2c(c(=O)[nH]1)C1(CCCCC1)Cc1ccccc1-2` was tested, and the IC50 was 40.3 µM. Work on `CCOC(=O)c1cc(-c2cccs2)nc2c1c(C)nn2-c1ccccn1` yielded an IC50 of 11 µM. Work on `CCN1CCN(c2cc(N3CCc4ccccc4C3)c(F)cc2[N+](=O)[O-])CC1` yielded an IC50 of 29 µM. `COC(=O)c1c(N2C(=O)CC(Sc3ccccc3C(=O)O)C2=O)sc2c1CCCC2` (configuration not stated) showed an IC50 of 12.2 µM. Work on `N=C(N)c1ccc(/C=C/c2ccc(C(=N)N)cc2O)cc1` yielded an IC50 of 10.6 µM. Compound `N/C(=C\C(=O)c1cc(Cl)ccc1O)C(Cl)(Cl)Cl` has an IC50 of 47.3 µM.
